Test results taken from PubChem BioAssay AID1963872 (Molecular Pharmacology Branch, DTP, NCI, 2024).

System: KRAS patient-derived spheroids with HUVEC/MSC, viability
Experiment: Anticancer human tumor 519858-162-T-J1-PDC patient-derived colon adenocarcinoma cell line growth inhibition [KRAS2]
Conditions: for viability, T/C: stronger effect = lower value
Summary of the method: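 Combination screen of spheroid viability in tumor-cell co-cultures with endothelial (HUVEC) and mesenchymal stem cell stroma. Each agent was tested in half-log dilutions, topping at clinical Cmax or at 10 microM without a known Cmax.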

[1] = curve of first compound, second compound 0.1 µM
[2] = curve of first compound, second compound 0.316 µM
[3] = curve of first compound, second compound 1 µM
[4] = curve of first compound, second compound 3.16 µM
[5] = curve of first compound, second compound 10 µM
[6] = second compound 0.1 µM, first compound 0.0316 µM
[7] = second compound 0.1 µM, first compound 0.1 µM
[8] = second compound 0.1 µM, first compound 0.316 µM
[9] = second compound 0.1 µM, first compound 1 µM
[10] = second compound 0.1 µM, first compound 3.16 µM
[11] = second compound 0.1 µM, first compound 10 µM
[12] = second compound 0.316 µM, first compound 0.0316 µM
[13] = second compound 0.316 µM, first compound 0.1 µM
[14] = second compound 0.316 µM, first compound 0.316 µM
[15] = second compound 0.316 µM, first compound 1 µM
[16] = second compound 0.316 µM, first compound 3.16 µM
[17] = second compound 0.316 µM, first compound 10 µM
[18] = second compound 1 µM, first compound 0.0316 µM
[19] = second compound 1 µM, first compound 0.1 µM
[20] = second compound 1 µM, first compound 0.316 µM
[21] = second compound 1 µM, first compound 1 µM
[22] = second compound 1 µM, first compound 3.16 µM
[23] = second compound 1 µM, first compound 10 µM
[24] = second compound 3.16 µM, first compound 0.0316 µM
[25] = second compound 3.16 µM, first compound 0.1 µM
[26] = second compound 3.16 µM, first compound 0.316 µM
[27] = second compound 3.16 µM, first compound 1 µM
[28] = second compound 3.16 µM, first compound 3.16 µM
[29] = second compound 3.16 µM, first compound 10 µM
[30] = second compound 10 µM, first compound 0.0316 µM
[31] = second compound 10 µM, first compound 0.1 µM
[32] = second compound 10 µM, first compound 0.316 µM
[33] = second compound 10 µM, first compound 1 µM
[34] = second compound 10 µM, first compound 3.16 µM
[35] = second compound 0.1 µM, first compound 0.01 µM
[36] = second compound 0.316 µM, first compound 0.01 µM
[37] = second compound 1 µM, first compound 0.01 µM
[38] = second compound 3.16 µM, first compound 0.01 µM
[39] = second compound 10 µM, first compound 0.01 µM
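Also: compound exposure lasted seven days before readout.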
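For viability, T/C in this document: 100% = DMSO vehicle control viability.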

## COc1cc2nccc(Oc3ccc(NC(=O)C4(C(=O)Nc5ccc(F)cc5)CC4)cc3)c2cc1OC + CNCc1ccccc1-c1csc(C(C)Nc2nc(C)nc3cc(OC)c(OC)cc23)c1
[1]
  IC50: > 10 µM
[2]
  IC50: > 10 µM
[3]
  IC50: > 10 µM
[4]
  IC50: 3.46 µM
[5]
  IC50: < 0.0316 µM
[6]
  viability, T/C: 92.8%
[7]
  viability, T/C: 93.2%
[8]
  viability, T/C: 81.7%
[9]
  viability, T/C: 94%
[10]
  viability, T/C: 107%
[11]
  viability, T/C: 146%
[12]
  viability, T/C: 91.4%
[13]
  viability, T/C: 96.5%
[14]
  viability, T/C: 88%
[15]
  viability, T/C: 90.1%
[16]
  viability, T/C: 98.1%
[17]
  viability, T/C: 132%
[18]
  viability, T/C: 67.1%
[19]
  viability, T/C: 81.8%
[20]
  viability, T/C: 61.6%
[21]
  viability, T/C: 50.1%
[22]
  viability, T/C: 106%
[23]
  viability, T/C: 100%
[24]
  viability, T/C: 39.9%
[25]
  viability, T/C: 55.6%
[26]
  viability, T/C: 44.5%
[27]
  viability, T/C: 38.1%
[28]
  viability, T/C: 95%
[29]
  viability, T/C: 0.54%
[30]
  viability, T/C: 1.01%
[31]
  viability, T/C: 0.42%
[32]
  viability, T/C: 0.68%
[33]
  viability, T/C: 1.44%
[34]
  viability, T/C: 0.37%
Second compound 10 µM, first compound 10 µM
  viability, T/C: 0.36%

## COc1cc(Nc2ncc3c(n2)-c2ccc(Cl)cc2C(c2c(F)cccc2OC)=NC3)ccc1C(=O)O + C=CC(=O)N1CCN(c2nc(OCC3CCCN3C)nc3c2CCN(c2cccc4cccc(C)c24)C3)CC1CC#N
Curve of first compound, second compound 0.0316 µM
  IC50: > 10 µM
[1]
  IC50: > 10 µM
[2]
  IC50: > 10 µM
[3]
  IC50: > 10 µM
[4]
  IC50: > 10 µM
Second compound 0.0316 µM, first compound 0.0316 µM
  viability, T/C: 104%
Second compound 0.0316 µM, first compound 0.1 µM
  viability, T/C: 87.2%
Second compound 0.0316 µM, first compound 0.316 µM
  viability, T/C: 97.3%
Second compound 0.0316 µM, first compound 1 µM
  viability, T/C: 90.3%
Second compound 0.0316 µM, first compound 3.16 µM
  viability, T/C: 74.6%
Second compound 0.0316 µM, first compound 10 µM
  viability, T/C: 98%
[6]
  viability, T/C: 89.1%
[7]
  viability, T/C: 82.2%
[8]
  viability, T/C: 102%
[9]
  viability, T/C: 78.8%
[10]
  viability, T/C: 90.5%
[11]
  viability, T/C: 130%
[12]
  viability, T/C: 105%
[13]
  viability, T/C: 89.9%
[14]
  viability, T/C: 63.2%
[15]
  viability, T/C: 75%
[16]
  viability, T/C: 82.5%
[17]
  viability, T/C: 111%
[18]
  viability, T/C: 103%
[19]
  viability, T/C: 80.8%
[20]
  viability, T/C: 66.8%
[21]
  viability, T/C: 69.2%
[22]
  viability, T/C: 99.8%
[23]
  viability, T/C: 110%
[24]
  viability, T/C: 74.5%
[25]
  viability, T/C: 83%
[26]
  viability, T/C: 75.3%
[27]
  viability, T/C: 77.2%
[28]
  viability, T/C: 109%
[29]
  viability, T/C: 74.3%

## CC1COCCN1c1cc(-c2ccnn2C)c2ccnc(-c3ccn[nH]3)c2n1 (configuration not stated) + C=CC(=O)N1CCN(c2nc(=O)n(-c3c(C)ccnc3C(C)C)c3nc(-c4c(O)cccc4F)c(F)cc23)C(C)C1
[1]
  IC50: 1.82 µM
[2]
  IC50: 2.1 µM
[3]
  IC50: 0.838 µM
[4]
  IC50: > 3.16 µM
[5]
  IC50: 0.34 µM
[35]
  viability, T/C: 115%
[6]
  viability, T/C: 102%
[7]
  viability, T/C: 89.3%
[8]
  viability, T/C: 82.7%
[9]
  viability, T/C: 61.6%
[10]
  viability, T/C: 38.1%
[36]
  viability, T/C: 87.4%
[12]
  viability, T/C: 94%
[13]
  viability, T/C: 78.4%
[14]
  viability, T/C: 87.9%
[15]
  viability, T/C: 69.8%
[16]
  viability, T/C: 39.1%
[37]
  viability, T/C: 116%
[18]
  viability, T/C: 91.8%
[19]
  viability, T/C: 124%
[20]
  viability, T/C: 78.5%
[21]
  viability, T/C: 50.1%
[22]
  viability, T/C: 39.6%
[38]
  viability, T/C: 110%
[24]
  viability, T/C: 97.9%
[25]
  viability, T/C: 89.4%
[26]
  viability, T/C: 80.9%
[27]
  viability, T/C: 68.6%
[28]
  viability, T/C: 48.8%
[39]
  viability, T/C: 70.4%
[30]
  viability, T/C: 87%
[31]
  viability, T/C: 61.8%
[32]
  viability, T/C: 56%
[33]
  viability, T/C: 21.3%
[34]
  viability, T/C: 20.3%

## CC(=O)OC12COC1CC(O)C1(C)C(=O)C(O)C3=C(C)C(OC(=O)C(O)C(NC(=O)OC(C)(C)C)c4ccccc4)CC(O)(C(OC(=O)c4ccccc4)C21)C3(C)C (configuration not stated) + COc1cc2nc(C)nc(NC(C)c3cc(N)cc(C(F)(F)F)c3)c2cc1OC1CCOC1
[1]
  IC50: > 3.16 µM
[2]
  IC50: > 3.16 µM
[3]
  IC50: > 3.16 µM
[4]
  IC50: > 3.16 µM
[5]
  IC50: > 3.16 µM
[35]
  viability, T/C: 123%
[6]
  viability, T/C: 115%
[7]
  viability, T/C: 98.3%
[8]
  viability, T/C: 122%
[9]
  viability, T/C: 92%
[10]
  viability, T/C: 94.6%
[36]
  viability, T/C: 99%
[12]
  viability, T/C: 112%
[13]
  viability, T/C: 99%
[14]
  viability, T/C: 71.6%
[15]
  viability, T/C: 66.9%
[16]
  viability, T/C: 78.9%
[37]
  viability, T/C: 91.3%
[18]
  viability, T/C: 76.1%
[19]
  viability, T/C: 105%
[20]
  viability, T/C: 89.8%
[21]
  viability, T/C: 110%
[22]
  viability, T/C: 90.9%
[38]
  viability, T/C: 72%
[24]
  viability, T/C: 112%
[25]
  viability, T/C: 76.4%
[26]
  viability, T/C: 79.7%
[27]
  viability, T/C: 56.1%
[28]
  viability, T/C: 82.3%
[39]
  viability, T/C: 112%
[30]
  viability, T/C: 97.4%
[31]
  viability, T/C: 65%
[32]
  viability, T/C: 62.7%
[33]
  viability, T/C: 66.5%
[34]
  viability, T/C: 96.8%

## COC(=O)c1ccc2c(C(=Nc3ccc(N(C)C(=O)CN4CCN(C)CC4)cc3)c3ccccc3)c(O)[nH]c2c1
Compound 0.0316 µM
  viability, T/C: 87.6% [middle of 5 runs]
Curve of compound
  IC50: > 10 µM
